Results published in patent US11253593B2, “Granulated anthelmintic preparations and delivery systems” (Argenta Innovation Limited, priority 2009, dated 2022).
Read-outs that look alike come from different tables or passages of the source.

Legend:
[1] = Stability trial post mix of reconstituted abamectin liquid concentrate; type: physicochemical
Experimental: The stability of the reconstituted abamectin was investigated after storage at 20-25° C. for 4 days.

[2] = in vivo
Experimental: A cross-over study was performed to determine the blood plasma concentrations of abamectin, oxfendazole and levamisole following oral treatment with reconstituted granule product containing these three anthelmintics.
Eight female romney sheep of similar age and body weight were used. The criteria for selection was to include animals that had not been dosed with a persistent anthelmintic formulation within 6 months of selection for the trial. Persistent anthelmintics include slow release capsules (e.g. Bionic), injectable or oral forms of moxidectin and closantel. Sheep were acclimated to the study site for 14 days before treatment.
Each sheep was randomly assigned to the treatment group and received one treatment and then the alternate treatment 21 days later.
The study procedures were as follows: • sheep were weighed using calibrated scales on Day −1 for weight ranking and allocation to treatment groups. […] Granules were weighed and added with the calculated volume of water to a 2 litre schott bottle and inverted a number of times until the granules were wetted and fully dispersed. On the morning of treatment the schott bottle was again gently inverted 3 or 4 times to ensure a homogeneous mix and approximately 100 mL was decanted from which the syringe was filled for dosing. • Treatments were administered on Day 0 and Day 21 at a dose volume of 1 ml/5 kg. Dosing was done using a 12 mL graduated syringe. Dose volume and time of administration was recorded and checked for each sheep. • Blood samples were collected before treatment, and after treatment at 0.5, 1, 2, 6, 8, 12, 15, 24 and 36 hrs.
Oxfendazole plasma levels are presented as two separate plasma metabolites: oxfendazole and fenbendazole, and the total of these two expressed as “total-oxfendazole”. All plasma metabolite units are presented as mg/kg

[3] = In-use stability, physico-chemical, of reconstituted dual active drug product; conditions: reconstituted drug product of 4.1; storage at 30 and 40° C. for 1 month
Experimental: The stability of reconstituted drug product was investigated after storage at 30 and 40° C. for 1 month.

[4] = In-use suspendability of reconstituted granule (oxfendazole as marker); type: physicochemical; conditions: reconstituted granule of 4.1 in water 1.1 kg/5 L
Experimental: The concentration of the reconstituted granule in water was 1.1 kg/5 L. Oxfendazole was chosen as a marker compound for drug suspension stability.
(Levamisole Fully Soluble)
2 h: At the top was 96 mg/g and at the bottom was 105.2 mg/g
4 h: At the top was 98 mg/g and at the bottom was 99 mg/g
4 days: At the top was 95.7 mg/g and at the bottom was 98 mg/g

[5] = Chemical and physical stability of abamectin in reconstituted triple active formulation; type: physicochemical; conditions: reconstituted with water, triple active formulation 6.1; storage at 30 and 40° C. for 1 month
Experimental: When reconstituted with water, the sstability of abamectin in the reconstituted triple active formulation was investigated after storage at 30 and 40° C. for 1 month.

[6] = female, Romney, sheep, in vivo, po
[7] = oral 1 ml/5 kg, pooled mean of 8 sheep, oxfendazole comparison
[8] = oral 1 ml/5 kg, pooled mean of 8 sheep, total oxfendazole comparison

OCc1ccccc1 [benzyl alcohol]
Degradation after reconstitution [1]: some degradation

COC(=O)Nc1nc2ccc(Sc3ccccc3)cc2[nH]1 [fenbendazole]
Tmax, plasma fenbendazole (metabolite) [2, 6]: 12 h
Cmax, plasma fenbendazole (metabolite) ([2]; sheep, in vivo, po): 0.209 mg/kg

c1ccc([C@H]2CN3CCSC3=N2)cc1 [levamisole]
Tmax [2, 6]: 1 h
Cmax, plasma levamisole ([2]; sheep, in vivo, po): 1.445 mg/kg
Chemical degradation [3]: less than 2%

COC(=O)Nc1nc2cc([S+]([O-])c3ccccc3)ccc2[nH]1 (stereo not shown) [oxfendazole]
Oxfendazole concentration at the bottom ([4]; 2 h): 105.2 mg/g
Oxfendazole concentration at the top ([4]; 2 h): 96 mg/g
Oxfendazole concentration at the bottom ([4]; 4 h): 99 mg/g
Oxfendazole concentration at the top ([4]; 4 h): 98 mg/g
Oxfendazole concentration at the bottom ([4]; 4 days): 98 mg/g
Oxfendazole concentration at the top ([4]; 4 days): 95.7 mg/g
Oxfendazole concentration, initial ([4]; initial): 100 mg/g
Cmax, plasma oxfendazole [2, 7]: 0.792 mg/kg
Tmax, plasma oxfendazole [2, 7]: 15 h
Cmax, plasma total oxfendazole (oxfendazole + fenbendazole) [2, 8]: 0.984 mg/kg
Tmax, plasma total oxfendazole (oxfendazole + fenbendazole) [2, 8]: 12 h
Chemical degradation [3]: no chemical degradation

abamectin
Degradation of abamectin [5]: less than 2%
Tmax, plasma abamectin ([2]; oral 1 ml/5 kg, pooled mean of 8 sheep, abamectin comparison): 24 h
Cmax, plasma abamectin ([2]; oral 1 ml/5 kg, pooled mean of 8 sheep, both cross-over phases, abamectin comparison): 0.017 mg/kg
Degradation after reconstitution ([1]; reconstituted liquid concentrate of Example 9, storage at 20-25° C. for 4 days): no degradation
